Literature values as cited in patent US20090005431A1, “SUBSTITUTED PYRROLIDINES” (AUSPEX PHARMACEUTICALS, INC., priority 2007, published 2009).

Experiments:
Conditions in all cases: human recombinant muscarinic receptor subtypes; cited from earlier work
[1] = test system: M3 receptor compared to M2
[2] = test system: M3 receptor compared to M4
[3] = test system: M3 receptor compared to M1
[4] = test system: M3 receptor compared to M5

For `NC(=O)C(c1ccccc1)(c1ccccc1)[C@@H]1CCN(CCc2ccc3c(c2)CCO3)C1` (stereo in doubt) [darifenacin, 2-{1-[2-(2,3-dihydro-benzofuran-5-yl)-ethyl]-pyrrolidin-3-yl}-2,2-diphenyl-acetamide], the “greater affinity for M3 compared to M2” value [1] is listed as 59 fold, the “greater affinity for M3 compared to M4” value [2] is listed as 59 fold and the “greater affinity for M3 compared to M1” value [3] is listed as 9 fold. For the same compound, the “greater affinity for M3 compared to M5” value [4] was 12 fold.
